In patent publication US20240190855A1 (Relay Therapeutics, Inc., priority 2021, published 2024):

Biological target: T1, CDK2/Cyclin E complex (Homo sapiens, UniProt P24941)
T1 construct: purchased Eurofins 14-475
Assay: CDK2/Cyclin E fluorescence-based microfluidic mobility shift assay (CDK2 Biochemical Caliper Assay)
Conditions: read-out: Biochemical CDK2/CyclinE Caliper IC50
How it was run: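 Microfluidic mobility-shift readout after EDTA termination measured phosphorylation of fluorescent FL Peptide 18 (1.5 uM final) in a 20 hr room-temperature reaction. Compounds were tested at 11 concentrations (3-fold).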

Question: `Cc1cc(CC(=O)Nc2cc([C@H]3CC[C@@H](OC(=O)N4CC5C(C4)C5(C)C)C3)[nH]n2)on1` (stereo partly drawn) [Example 661] was tested. Which IC50 did it give?
Answer: Its IC50 is no more than 0.1 µM.

Question: With `Cc1ccc(O[C@@H]2CC[C@H](c3cc(NC(=O)Cc4cc(C)no4)n[nH]3)C2)cn1` (single isomer, unassigned) [Example 357] as the compound, how does the IC50 read?
Answer: Its IC50 is 1 to 100 µM.

Question: With `CCS(=O)(=O)N[C@@H]1CC[C@H](c2cc(NC(=O)Cc3cc(C)no3)n[nH]2)C1` (single isomer, unassigned) [Example 133] as the compound, how does the IC50 read?
Answer: Its IC50 is 1 to 100 µM.

Question: Which IC50 does the source give for `COCc1cn2c(Nc3cc([C@@H]4C[C@@H](OC(=O)NC5(C)CC5)CO4)[nH]n3)nccc2n1` [Example 904] here?
Answer: Its IC50 is 1 to 100 µM.

Question: For `COCc1cc2c(Nc3cc([C@H]4C[C@H](COc5nnccc5C(C)C)C4)[nH]n3)nccn2n1` [Example 520], which IC50 is on record?
Answer: The IC50 was 1 to 100 µM.

Question: For `Cc1cn2nccc2c(Nc2cc(C3CCCC3)[nH]n2)n1` [Example 822], which IC50 is on record?
Answer: The IC50 was 0.25 to 1 µM.

Question: How did the IC50 turn out when `CC(C)c1ccnnc1O[C@H]1CC[C@@H](c2cc(Nc3nccc4ncsc34)n[nH]2)C1` [Example 437] was run?
Answer: Its IC50 is no more than 0.1 µM.

Question: For `Cc1cc(CC(=O)Nc2cc([C@H]3CC[C@@H](OC(=O)N4C[C@@H]5[C@@H](CF)[C@@H]5C4)C3)[nH]n2)on1` [Example 662], which IC50 is on record?
Answer: The IC50 was no more than 0.1 µM.

Question: How did the IC50 turn out when `COCc1cc(C(=O)Nc2cc([C@@H]3CC[C@@H](c4cnc(C)cn4)C3)[nH]n2)n(C)n1` (single isomer, unassigned) [Example 578] was run?
Answer: Its IC50 is 1 to 100 µM.

Question: Which IC50 does the source give for `CC(C)n1cnnc1OC[C@H]1C[C@@H](c2cc(Nc3nccn4nccc34)n[nH]2)C1` [Example 635] here?
Answer: Its IC50 is no more than 0.1 µM.

Question: Which IC50 does the source give for `COCc1cc(C(=O)Nc2cc([C@H]3CC[C@@H](c4ncc(C)cn4)C3)[nH]n2)n(C)n1` (single isomer, unassigned) [Example 592] here?
Answer: Its IC50 is 1 to 100 µM.

Question: Which IC50 does the source give for `COCc1cc(C(=O)Nc2cc([C@H]3C[C@@H](COc4cn[nH]c4C4(C)CC4)C3)[nH]n2)n(C)n1` [Example 645] here?
Answer: Its IC50 is 0.25 to 1 µM.

Question: Which IC50 does the source give for `CC(C)NC(=O)O[C@@H]1CC[C@H](c2cc(Nc3cncc(OCCO)n3)n[nH]2)C1` (single isomer, unassigned) [Example 563] here?
Answer: Its IC50 is no more than 0.1 µM.

Question: With `Cn1nc(COC(F)(F)F)cc1C(=O)Nc1cc([C@@H]2C[C@H](OC(=O)NC3(C)COC3)CO2)[nH]n1` [Example 893] as the compound, how does the IC50 read?
Answer: The IC50 was no more than 0.1 µM.

Question: For `CC(C)NC(=O)O[C@H]1CO[C@@H](c2cc(Nc3nccn4nc(CN5CCC5)cc34)n[nH]2)C1` [Example 673], which IC50 is on record?
Answer: The IC50 was no more than 0.1 µM.

Question: With `Cn1cc2c(Nc3cc([C@H]4C[C@@H](OC(=O)NC5(C)CC5)CO4)[nH]n3)nccc2n1` [Example 745] as the compound, how does the IC50 read?
Answer: The IC50 was 0.1 to 0.25 µM.

Question: For `COCc1cc(C(=O)Nc2ncc([C@@H]3C[C@H](OC(=O)NC4(C)CC4)CO3)s2)n(C)n1` (single isomer, unassigned) [Example 900], which IC50 is on record?
Answer: The IC50 was no more than 0.1 µM.

Question: With `CC(C)NC(=O)OC[C@H]1C[C@@H](c2cc(NC(=O)c3cc(COC(F)F)nn3C)n[nH]2)C1` [Example 650] as the compound, how does the IC50 read?
Answer: The IC50 was no more than 0.1 µM.

Question: With `CC(C)NC(=O)O[C@H]1CC[C@@H](c2cc(Nc3cncc(OCCO)n3)n[nH]2)C1` (single isomer, unassigned) [Example 564] as the compound, how does the IC50 read?
Answer: Its IC50 is no more than 0.1 µM.

Question: How did the IC50 turn out when `CC(=O)Nc1cc([C@H]2CC[C@@H](Oc3nscc3C3CC3)C2)[nH]n1` (single isomer, unassigned) [Example 421] was run?
Answer: The IC50 was no more than 0.1 µM.

Question: How did the IC50 turn out when `COCc1cc2c(Nc3cc([C@H]4C[C@@H](Oc5nncn5C5(C)CC5)CO4)[nH]n3)nccn2n1` [Example 707] was run?
Answer: The IC50 was no more than 0.1 µM.

Question: Which IC50 does the source give for `c1cn2nc3c(c2c(Nc2cc(C4CCCC4)[nH]n2)n1)CCC3` [Example 869] here?
Answer: Its IC50 is 1 to 100 µM.

Question: With `COCc1cc(C(=O)Nc2cc([C@@H]3CC[C@@H](c4nccc(C(C)C)n4)C3)[nH]n2)n(C)n1` (single isomer, unassigned) [Example 612] as the compound, how does the IC50 read?
Answer: The IC50 was 1 to 100 µM.

Question: `Cc1cncc(O[C@@H]2CC[C@H](c3cc(NC(=O)Cc4cc(C)no4)n[nH]3)C2)c1` (single isomer, unassigned) [Example 355] was tested. Which IC50 did it give?
Answer: Its IC50 is 0.25 to 1 µM.

Question: Which IC50 does the source give for `Cc1cc(CC(=O)Nc2cc([C@@H]3CC[C@H](OC(=O)[C@H](N)C(C)C)C3)[nH]n2)on1` (single isomer, unassigned) [Example 451] here?
Answer: Its IC50 is 0.1 to 0.25 µM.

Question: With `Cc1cc(CC(=O)Nc2cc([C@H]3CC[C@H](O)C3)[nH]n2)on1` (single isomer, unassigned) [Example 377] as the compound, how does the IC50 read?
Answer: The IC50 was 1 to 100 µM.

Question: For `COCc1cc2c(Nc3cc([C@H]4C[C@@H](COc5cn[nH]c5C(C)C)C4)[nH]n3)nccn2n1` [Example 588], which IC50 is on record?
Answer: Its IC50 is no more than 0.1 µM.

Question: How did the IC50 turn out when `COCc1cc2c(Nc3cc([C@H]4C[C@@H](OC(=O)N[C@@H]5CC5(C)C)CO4)[nH]n3)nccn2n1` [Example 679] was run?
Answer: The IC50 was no more than 0.1 µM.

Question: For `CC(C)NC(=O)O[C@H]1CC[C@@H](c2cc(N)n[nH]2)C1` (single isomer, unassigned) [Example 418], which IC50 is on record?
Answer: Its IC50 is 1 to 100 µM.

Question: For `COCc1cc2c(Nc3cc([C@H]4C[C@@H](OC(=O)NC5COC5)CO4)[nH]n3)nccn2n1` [Example 683], which IC50 is on record?
Answer: Its IC50 is 0.25 to 1 µM.

Question: Which IC50 does the source give for `CC1(NC(=O)O[C@H]2CO[C@@H](c3cc(Nc4ccc5nccn5n4)n[nH]3)C2)CC1` [Example 732] here?
Answer: Its IC50 is no more than 0.1 µM.

Question: `Cn1nc(COC(F)(F)F)cc1C(=O)Nc1cc([C@@H]2C[C@H](OC(=O)NC34CC(C#N)(C3)C4)CO2)[nH]n1` [Example 912] was tested. Which IC50 did it give?
Answer: The IC50 was no more than 0.1 µM.

Question: For `Cc1cc(CC(=O)Nc2cc([C@@H]3CC[C@@H](Cc4nncn4C(C)C)C3)[nH]n2)on1` (single isomer, unassigned) [Example 372], which IC50 is on record?
Answer: Its IC50 is 1 to 100 µM.

Question: `Cc1cc2ncnc(Nc3cc(C4CCCC4)[nH]n3)c2[nH]1` [Example 859] was tested. Which IC50 did it give?
Answer: The IC50 was 1 to 100 µM.

Question: With `COCc1cc(C(=O)Nc2cc([C@H]3C[C@@H](COc4nncn4C(C)C)C3)[nH]n2)n(C)n1` [Example 633] as the compound, how does the IC50 read?
Answer: Its IC50 is no more than 0.1 µM.

Question: `COCc1cc2c(Nc3cc([C@H]4C[C@@H](OC(=O)NC5(c6cnn(C)c6)CC5)CO4)[nH]n3)nccn2n1` [Example 678] was tested. Which IC50 did it give?
Answer: Its IC50 is 0.1 to 0.25 µM.

Question: For `COCc1cc(C(=O)Nc2cc([C@@H]3CC[C@H](Oc4cncnc4C)C3)[nH]n2)n(C)n1` (single isomer, unassigned) [Example 491], which IC50 is on record?
Answer: Its IC50 is 1 to 100 µM.

Question: With `COCc1cc2c(Nc3cc([C@H]4C[C@@H](OC(=O)NC5(C#N)CC5)CO4)[nH]n3)nccn2n1` [Example 698] as the compound, how does the IC50 read?
Answer: The IC50 was no more than 0.1 µM.

Question: For `CC1(C)NC(=O)c2ccc(Nc3cc(C4CCCC4)[nH]n3)nc21` [Example 796], which IC50 is on record?
Answer: The IC50 was no more than 0.1 µM.

Question: For `CC(C)NC(=O)O[C@H]1CO[C@@H](c2cc(Nc3nccn4nc(COC(C)C)cc34)n[nH]2)C1` [Example 658], which IC50 is on record?
Answer: The IC50 was no more than 0.1 µM.

Question: `CO[C@H](C)c1cc2c(Nc3cc([C@H]4C[C@@H](OC(=O)NC5(C)CC5)CO4)[nH]n3)nccn2n1` (single isomer, unassigned) [Example 892] was tested. Which IC50 did it give?
Answer: Its IC50 is no more than 0.1 µM.

Question: `COc1cnc2ncnc(Nc3cc(C4CCCC4)[nH]n3)c2c1` [Example 865] was tested. Which IC50 did it give?
Answer: The IC50 was 1 to 100 µM.

Question: `CC(C)NC(=O)OC[C@H]1C[C@@H](c2cc(NC(=O)c3cc(COC(C)C)nn3C)n[nH]2)C1` [Example 652] was tested. Which IC50 did it give?
Answer: Its IC50 is no more than 0.1 µM.

Question: How did the IC50 turn out when `COCc1cc(C(=O)Nc2cc([C@H]3CC[C@@H](Oc4nnccc4C4CCC4)C3)[nH]n2)n(C)n1` (single isomer, unassigned) [Example 550] was run?
Answer: The IC50 was no more than 0.1 µM.

Question: `Cc1cc(CC(=O)Nc2cc([C@@H]3CC[C@H](Cc4cn[nH]c4C(C)C)C3)[nH]n2)on1` (single isomer, unassigned) [Example 408] was tested. Which IC50 did it give?
Answer: Its IC50 is 0.25 to 1 µM.

Question: `COCc1cc(C(=O)Nc2cc([C@H]3C[C@H](COc4cccnc4)C3)[nH]n2)n(C)n1` [Example 562] was tested. Which IC50 did it give?
Answer: Its IC50 is 1 to 100 µM.

Question: `COC(=O)c1cc(Nc2cc(C3CCCC3)[nH]n2)cnn1` [Example 800] was tested. Which IC50 did it give?
Answer: Its IC50 is 1 to 100 µM.

Question: Which IC50 does the source give for `Cc1cc(CC(=O)Nc2cc([C@@H]3CC[C@H](NC(=O)[C@H](O)C(C)C)C3)[nH]n2)on1` (single isomer, unassigned) [Example 453] here?
Answer: Its IC50 is 1 to 100 µM.
